Results reported in patent US7405228B2, “Antibacterial cyano-(substituted)-methylenepiperidinophenyl oxazolidinones targeting multiple ribonucleoprotein sites” (Wockhardt Limited, priority 2002, dated 2008).
In brackets after ≈: the same amount, converted by molar mass.

What was measured:
[1] = test system: Enterococcus faecalis 416 strain; experiment: Propensity to resistance development (resistant colonies per plate); assay type: cell-based; conditions: E. faecalis 416 at 10^8 CFU, compound concentration 5 mcg/ml, 48 hours at 35° C.
Procedure: Enterococcus faecalis 416 strain at 10^8 CFU density level was spirally plated on Mueller Hinton agar containing 5 mcg/ml each of linezolid and representative compound of the invention. Plates were incubated at 35° C. for 48 hours and number of resistant colonies developed in presence of respective compounds were counted by automated counter.

MRSA 032 = experiment: MIC determination, linezolid sensitive MRSA 032 (MRSA-32); assay type: cell-based; conditions: Staphylococcus aureus, read-out: MIC MRSA 32
Procedure: (§1) Infecting doses of organisms given by intraperitoneal route in 5% hog gastric mucin were 10^3-10^4 CFU (colony forming units)/animal for SPN 6303 and 10^8 CFU/animal for MRSA-32. In case of MRSA-32, Linezolid was administered by oral route, 1 and 4 h post infection, BID (twice a day) for 1 day and for SPN 6303 BID for 2 days. […] MICs of Methicillin Resistant Staphylococcus aureus-32 Linezolid resistant (MRSA-32 LNZR), S. pneumoniae 744 Linezolid resistant (SPN 744 LNZR) and parent Linezolid sensitive strains MRSA-32 and SPN 6303 were determined for Linezolid by NCCLS agar dilution method.
(§2) Cultures were further diluted 1:10 in Mueller Hinton broth. Using Denley's mutipoint inoculator, 10^4 cells were deposited on Mueller Hinton agar (Difco) containing range of 2 fold dilutions of test compounds. […] MIC is defined as minimum drug concentration that inhibits test organisms. For determining MIC of test compounds against Streptococcus pneumoniae, Mueller Hinton agar containing 5% sheep blood was employed.

S. aureus MRSA-32 LNZR = experiment: MIC determination, linezolid resistant S. aureus MRSA-32 LNZR; assay type: cell-based; conditions: Staphylococcus aureus, 24 h, read-out: MIC MRSA 32 LNZR
Procedure: as §1, §2

SPN 744 LNZR = experiment: MIC determination, linezolid resistant SPN 744 LNZR; assay type: cell-based; conditions: Streptococcus pneumoniae, read-out: MIC SPN744 LNZR
Procedure: as §1, §2

E. faecium 367 LNZR = experiment: MIC determination, linezolid resistant E. faecium 367 LNZR; assay type: cell-based; conditions: Enterococcus faecium, read-out: MIC E. faecium 367 LNZR
Procedure: E. faecium ATCC 19434 strain at a cell density of 10^6/ml was inoculated in Mueller Hinton broth medium containing Linezolid at a concentration of 5 and 7.5 mcg/ml. The stationary culture was incubated at 37° C. and inspected at every 24 hours to assess the formation of turbidity due to the onset of bacterial growth. […] A 50 microliter sample of turbid flask was plated on Mueller Hinton agar medium incorporated with linezolid at 7.5 mcg/ml. The agar plates were incubated for 48 hours at 37° C. for the formation of discrete colonies of linezolid-resistant strain of E. faecium (E. faecium 367 LNZR). MICs of resistant mutant E. faecium 367 LNZR and parent strain E. faecium ATCC 19434 were determined for linezolid by NCCLS method.
as §2

SPN 49619 = experiment: MIC determination, linezolid sensitive SPN 49619; assay type: cell-based; conditions: Streptococcus pneumoniae; linezolid sensitive strain, Table 3
[2] = test system: Enterococcus faecalis 416 strain; experiment: Killing effect study (bactericidal vs bacteriostatic activity); assay type: cell-based; conditions: E. faecalis 416, 5 mcg/ml compound, initial count 10^6 CFU/ml, Table 4
Procedure: The initial inoculum was adjusted to 10^6 CFU (colony forming units) per ml. The flasks were kept on shaker in close cabinet at 35° C. Aliquots were drawn at 112 hours and cell count was determined to assess the extent of loss in viability.

Row | Structure (SMILES) | No. of colonies/plate [1] | MIC (MRSA 032) [µg/mL] | MIC (S. aureus MRSA-32 LNZR) [µg/mL] | MIC (SPN 744 LNZR) [µg/mL] | MIC (E. faecium 367 LNZR) [µg/mL] | MIC (SPN 49619) [µg/mL] | melting point [°C] | Final Count (112 h) [2]
1 | CC(=O)NC[C@H]1CN(c2ccc(N3CCC(=CC#N)C(F)C3)c(F)c2)C(=O)O1 (mixture of isomers) [Example 56, (S)-N-{3-[4-(4-cyanomethylidene-3-fluoropiperidin-1-yl)-3-fluorophenyl]-2-oxo-oxazolidin-5-ylmethyl}-acetamide] | 0 |  |  |  |  |  |  | 
2 | CC(=O)NC[C@H]1CN(c2ccc(N3CC/C(=C\C#N)C(F)C3)c(F)c2)C(=O)O1 (stereo partly drawn) [56 (E), E-(S)-N-{3-[4-(4-cyanomethylidene-3-fluoropiperidin-1-yl)-3-fluorophenyl]-2-oxo-oxazolidin-5-ylmethyl}-acetamide] |  | 0.8 (≈ 2.05 µM) | 12.5 (≈ 32 µM) | 6.25 (≈ 16 µM) | 6.25 (≈ 16 µM) | 0.8 (≈ 2.05 µM) |  | 
3 | CC(=O)NC[C@H]1CN(c2ccc(N3CC/C(=C/C#N)C(F)C3)c(F)c2)C(=O)O1 (stereo partly drawn) [56 (Z), Z-(S)-N-{3-[4-(4-cyanomethylidene-3-fluoropiperidin-1-yl)-3-fluorophenyl]-2-oxo-oxazolidin-5-ylmethyl}-acetamide] |  | 0.8 (≈ 2.05 µM) | 25 (≈ 64 µM) | 12.5 (≈ 32 µM) | 6.25 (≈ 16 µM) | 0.8 (≈ 2.05 µM) |  | 
4 | N#CC=C1CCN(c2ccc(N3C[C@H](CNC(=O)CCl)OC3=O)cc2F)CC1 [Example 31, (S)-N-{3-[4-(4-cyanomethylidene-piperidin-1-yl)-3-fluorophenyl]-2-oxo-oxazolidin-5-ylmethyl}-chloroacetamide] | 0 | 0.8 (≈ 1.97 µM) | 12.5 (≈ 30.7 µM) | 12.5 (≈ 30.7 µM) | 6.25 (≈ 15.4 µM) | 0.8 (≈ 1.97 µM) |  | 
5 | N#CC=C1CCN(c2ccc(N3C[C@H](CNC(=S)CO)OC3=O)cc2F)CC1 [Example 47, (S)-N-{3-[4-(4-cyanomethylidene-piperidin-1-yl)-3-fluorophenyl]-2-oxo-oxazolidin-5-ylmethyl}-2-hydroxythioacetamide] | 0 | 0.8 (≈ 1.98 µM) |  |  |  | 0.4 (≈ 0.989 µM) |  | 
6 | CC(=S)NC[C@H]1CN(c2ccc(N3CC/C(=C\C#N)C(F)C3)c(F)c2)C(=O)O1 (stereo partly drawn) [Example 60, (S)-N-{3-[4-(4-cyanomethylidene-3-fluoropiperidin-1-yl)-3-fluorophenyl]-2-oxo-oxazolidin-5-ylmethyl}-thioacetamide] |  | 0.25 (≈ 0.615 µM) | 6.25 (≈ 15.4 µM) | 3.12 (≈ 7.68 µM) | 1.56 (≈ 3.84 µM) | 0.1 (≈ 0.246 µM) |  | 
7 | COC(=S)NC[C@H]1CN(c2ccc(N3CC/C(=C\C#N)C(C)C3)c(F)c2)C(=O)O1 (stereo partly drawn) [Example 67, (S)-N-{3-[4-(4-cyanomethylidene-3-methylpiperidin-1-yl)-3-fluorophenyl]-2-oxo-oxazolidin-5-ylmethyl}-methylthiocarbamate] |  | 0.8 (≈ 1.91 µM) | 12.5 (≈ 29.9 µM) | 6.25 (≈ 14.9 µM) | 3.12 (≈ 7.46 µM) | 0.4 (≈ 0.956 µM) |  | 
8 | CC1CN(c2ccc(N3C[C@H](CNC(N)=S)OC3=O)cc2F)CC/C1=C\C#N (stereo partly drawn) [Example 68, (S)-N-{3-[4-(4-cyanomethylidene-3-methylpiperidin-1-yl)-3-fluorophenyl]-2-oxo-oxazolidin-5-ylmethyl}-thiocarbamide] |  | 0.4 (≈ 0.991 µM) | 6.25 (≈ 15.5 µM) | 3.12 (≈ 7.73 µM) | 3.12 (≈ 7.73 µM) | 0.4 (≈ 0.991 µM) |  | 
9 | CC(=O)NC[C@H]1CN(c2ccc(N3CCC(=C(C)C#N)CC3)c(F)c2)C(=O)O1 [Example 74, (S)-N-{3-[4-(4-(1-cyanoethylidene)-piperidin-1-yl)-3-fluorophenyl]-2-oxo-oxazolidin-5-ylmethyl}-acetamide] | 0 |  | 25 (≈ 64.7 µM) | 6.25 (≈ 16.2 µM) | 6.25 (≈ 16.2 µM) |  |  | 
10 | CC(C#N)=C1CCN(c2ccc(N3C[C@H](CNC(=O)C(F)F)OC3=O)cc2F)CC1 [Example 77, (S)-N-{3-[4-(4-(1-cyanoethylidene)-piperidin-1-yl)-3-fluorophenyl]-2-oxo-oxazolidin-5-ylmethyl}-difluoroacetamide] |  |  | 12.5 (≈ 29.6 µM) | 6.25 (≈ 14.8 µM) | 6.25 (≈ 14.8 µM) |  |  | 
11 | CC(=S)NC[C@H]1CN(c2ccc(N3CCC(=C(C)C#N)CC3)c(F)c2)C(=O)O1 [Example 84, (S)-N-{3-[4-(4-(1-cyanoethylidene)-piperidin-1-yl)-3-fluorophenyl]-2-oxo-oxazolidin-5-ylmethyl}-thioacetamide] |  | 0.4 (≈ 0.994 µM) | 1.56 (≈ 3.88 µM) | 1.56 (≈ 3.88 µM) | 1.56 (≈ 3.88 µM) | 0.2 (≈ 0.497 µM) |  | 
12 | CCC(C#N)=C1CCN(c2ccc(N3C[C@H](CNC(C)=O)OC3=O)cc2F)CC1 [Example 89, (S)-N-{3-[4-(4-(1-cyanopropylidene)-piperidin-1-yl)-3-fluorophenyl]-2-oxo-oxazolidin-5-ylmethyl}-acetamide] |  |  | 25 (≈ 62.4 µM) | 12.5 (≈ 31.2 µM) | 6.25 (≈ 15.6 µM) |  |  | 
13 | CCC(C#N)=C1CCN(c2ccc(N3C[C@H](CNC(=O)C(Cl)Cl)OC3=O)cc2F)CC1 [Example 90, (S)-N-{3-[4-(4-(1-cyanopropylidene)-piperidin-1-yl)-3-fluorophenyl]-2-oxo-oxazolidin-5-ylmethyl}-dichloroacetamide] | 0 | 0.8 (≈ 1.7 µM) | 12.5 (≈ 26.6 µM) | 6.25 (≈ 13.3 µM) | 3.12 (≈ 6.65 µM) | 0.4 (≈ 0.852 µM) |  | 
14 | CCC(C#N)=C1CCN(c2ccc(N3C[C@H](CNC(C)=S)OC3=O)cc2F)CC1 [Example 93, (S)-N-{3-[4-(4-(1-cyanopropylidene)-piperidin-1-yl)-3-fluorophenyl]-2-oxo-oxazolidin-5-ylmethyl}-thioacetamide] |  | 0.4 (≈ 0.96 µM) | 6.25 (≈ 15 µM) | 3.12 (≈ 7.49 µM) | 1.56 (≈ 3.75 µM) | 0.2 (≈ 0.48 µM) |  | 
15 | CSC(C#N)=C1CCN(c2ccc(N3C[C@H](CNC(C)=O)OC3=O)cc2F)CC1 [Example 115, (S)-N-{3-[4-(4-(1-cyano-1-methylmercapto-methylidene)-piperidin-1-yl)-3-fluorophenyl]-2-oxo-oxazolidin-5-ylmethyl}-acetamide] |  | 0.8 (≈ 1.91 µM) | 12.5 (≈ 29.9 µM) | 6.25 (≈ 14.9 µM) | 3.12 (≈ 7.46 µM) | 0.8 (≈ 1.91 µM) |  | 
16 | CC(=O)NC[C@H]1CN(c2ccc(N3CCC(=C(Br)C#N)CC3)c(F)c2)C(=O)O1 [Example 117, (S)-N-{3-[4-(4-(1-cyano-1-bromo-methylidene)-piperidin-1-yl)-3-fluorophenyl]-2-oxo-oxazolidin-5-ylmethyl}-acetamide] |  | 0.8 (≈ 1.77 µM) | 12.5 (≈ 27.7 µM) | 6.25 (≈ 13.8 µM) | 3.12 (≈ 6.91 µM) | 0.4 (≈ 0.886 µM) |  | 
17 | CC(=O)NC[C@H]1CN(c2ccc(N3CC=C(CC#N)CC3)c(F)c2)C(=O)O1 [Example 159, (S)-N-{3-[4-(4-cyanomethyl-3,4-dehydropiperidin-1-yl)-3-fluorophenyl]-2-oxo-oxazolidin-5-ylmethyl}-acetamide] | 1.5 × 10^1 |  |  |  |  |  | 132 | 
18 | CC(=S)NC[C@H]1CN(c2ccc(N3CC=C(CC#N)CC3)c(F)c2)C(=O)O1 [Example 160, (S)-N-{3-[4-(4-cyanomethyl-3,4-dehydropiperidin-1-yl)-3-fluorophenyl]-2-oxo-oxazolidin-5-ylmethyl}-thioacetamide] | 0 | 0.4 (≈ 1.03 µM) | 6.25 (≈ 16.1 µM) | 3.12 (≈ 8.03 µM) |  | 0.2 (≈ 0.515 µM) |  | <10^2 CFU/ml
